{"source": "patent US20210121482A1", "about": "“WITHANOLIDES FOR THE TREATMENT OF CACHEXIA” (University of Louisville Research Foundation, Inc., priority 2019, published 2021)", "key": {"[1]": {"assay": "Body and organ weight, A2780 xenograft mice (Example 1)", "conditions": "for BW Week 2 / BW Week 3 / BW Week 1 / Initial BW / Kidney weight normalized / Liver weight normalized / Spleen weight normalized: tumor-bearing; for Initial BW: baseline, before treatment"}, "CAOV3": {"system": "CAOV3", "conditions": "CAOV3 cells; cited from earlier work"}, "[2]": {"system": "Tn-I, AT2R and pro-inflammatory cytokines in the heart", "assay": "qPCR of heart", "assay_type": "in vivo, Mus musculus", "conditions": "for relative transcript level of AT2R in the heart: compared to control", "procedure": "Total RNA Extraction and qPCR: Isolation of total RNA from xenografted tumor samples was performed using an RNeasy® Mini Kit (Qiagen Catalog #74104) according to the manufacturer's instructions. Isolation of total RNA from skeletal muscle was performed using an RNeasy® Fibrous Tissue Mini Kit (Qiagen Catalog #74704) according to the manufacturer's instructions. First strand cDNA was synthesized using 1 μg of purified RNA and a commercially available kit (iScript™ cDNA synthesis, Bio-Rad Catalog #170-8891), Quantification of mRNA expression was performed similar to as previously described (Hindi and Kumar, 2016) using the SYBR Green dye method on a StepOnePlus™ system (Applied Biosystems) using gene-specific primers, as shown in Table 1.\nIsolation and preparation of total RNA was performed as described in Example 1."}, "phospho-p65 (NF-κB)": {"system": "phospho-p65 (NF-κB)", "assay": "Western blot and IHC of p65 in tumor samples", "assay_type": "in vivo, mice", "conditions": "2 and 6 mg/kg", "procedure": "Immunohistochemistry of Tumor Tissue: For the detection of various proteins, 10 μm thick sections were made from the midsection of tumor samples. A hydrophobic boundary was drawn around the sections and then they were fixed in 3.7% formaldehyde solution for 10 minutes. The slides were washed three times with 1×PBS for 5 minutes each. The sections were then blocked in 2% BSA in PBS for 30 minutes. The sections were then incubated with primary antibodies (1:100 dilution) overnight in a humidity chamber at 4° C. The sections were then washed three times with 1×PBS for 5 minutes. The slides were incubated in appropriate secondary antibodies (1:2000 dilution) for 45-60 minutes. Sections were counterstained with DAPI (1:2500 dilution) for 5 minutes to visualize nuclei. Slides were then washed twice in 1×PBS for 5 minutes, and then mounted for visualization. Nonspecific background staining was determined by performing the above protocol with omitting the inclusion of the primary antibodies. Refer to Table 2 for a complete list of antibodies utilized.\nProtein Extraction and Western Blotting: Tumor samples were homogenized in chilled RIPA buffer (Sigma) supplemented with a Complete Mini Protease Inhibitor tablet (Roche Molecular Biochemicals, Indianapolis, Ind.). Tissue lysates were centrifuged at 10,000 RPM and the supernatants were collected. Protein concentration for each sample was determined using the Bradford reagent method (Bio-Rad), according to manufacturer's instructions. Protein lysates ([…]) were separated on 10% SDS-PAGE gels at 100 volts for 2 h. The proteins were transferred to nitrocellulose membranes at 100 volts for 90 minutes. The membranes were blocked with 5% non-fat milk in Tris-buffered saline supplemented with Tween®20 (0.5%; TBS-T) for 30-60 minutes. The membranes were then washed 3 times with TBS-T for 5 minutes. The membranes were then incubated with primary antibody at 4° C. overnight. […]"}, "satellite cells": {"system": "satellite cells", "assay": "Satellite cell IHC (Pax7, MyoD, Laminin) in TA muscle", "assay_type": "in vivo, mice", "procedure": "Due to the role of WFA in inhibiting canonical NF-κ B signaling and the effect ovarian cancer has on this signaling pathway, WFA and the xenograft model were tested to measure induction or activation of satellite cells. The TA muscle was subjected to immunofluorescent immunohistochemical (IHC) staining for Pax7 (a marker of satellite cells), MyoD (a marker of myogenic differentiation), and Laminin (a marker of the basal lamina) (FIG. 15A). As accurate IHC detection of satellite cells can be challenging, individual color channels were compared against negative control slides to optimize visualization of satellite cells, minimize nonspecific background staining, and rule out false positives (Pax7^+/DAPI− cells) (37).\nInitially, the number of satellite cells per field (normalized by the number of Laminin+ myofibers) was quantified to assess whether the model of ovarian cancer or WFA treatment affected the satellite cell population at large. […] There was a significant increase in the amount of Pax7+ cells in the tumor-bearing vehicle-treated group (0.34±0.01) compared to the tumor-free vehicle-treated and tumor-free WFA 2 mg/kg groups, although there was a significant reduction compared to the tumor-free WFA 4 mg/kg group (p<0.0001 for all comparisons). […] A small, but statistically significant decrease in the tumor-bearing WFA 4 mg/kg group was observed compared to the tumor-bearing vehicle-treated group (p=0.0004). […] Due to the systemic nature of WFA treatment, the tumor-specific uptake of WFA may have diminished the effect observed on skeletal muscle with respect to satellite cell activation in the tumor-bearing animals compared to the tumor-free animals.\nAfter assessing changes in the gross number of satellite cells, the myogenic status was assessed to determine if the satellite cells were functionally activated. Satellite cells that are Pax7+/MyoD− are self-renewing or returning to quiescence, whereas satellite cells that are Pax7+/MyoD+ have committed to the myogenic lineage and will facilitate in muscle repair (6, 38). […] It was not feasible to enumerate the population of Pax7−/MyoD+ cells in response to the xenografted cancer or WFA treatment due to experimental limitations. However, distinct populations of Pax7+/MyoD− and Pax7+/MyoD+ cells were present (FIGS. 15C and 15D)."}, "[3]": {"conditions": "WFA 2 mg/kg IP every three days"}, "[4]": {"conditions": "WFA 6 mg/kg IP every three days"}}}
{"smiles": "CC1=C(CO)C(=O)O[C@@H]([C@@H](C)[C@H]2CC[C@H]3[C@@H]4C[C@H]5O[C@]56[C@@H](O)C=CC(=O)[C@]6(C)[C@H]4CC[C@]23C)C1", "note": "[WFA, (4β,5β,6β,22R)-4,27-Dihydroxy-5,6:22,26-diepoxyergosta-2,24-diene-1,26-dione]", "values": [{"measurement": "body weight fold change", "setting": "[1]; 2 and 6 mg/kg, at termination of study, all groups compared", "result": "No statistically significant difference between the groups"}, {"measurement": "BW Week 2", "setting": "[1]; [3]", "result": "20.43 ± 2.43", "unit": "g"}, {"measurement": "BW Week 3", "setting": "[1]; [3]", "result": "22.68 ± 2.53", "unit": "g"}, {"measurement": "BW Week 1", "setting": "[1]; WFA 2 mg/kg group", "result": "19.98 ± 2.33", "unit": "g"}, {"measurement": "Initial BW", "setting": "[1]; WFA 2 mg/kg group", "result": "19.14 ± 1.50", "unit": "g"}, {"measurement": "Kidney weight normalized", "setting": "[1]; WFA 2 mg/kg", "result": "4.95 ± 0.79", "unit": "mg/g"}, {"measurement": "Liver weight normalized", "setting": "[1]; WFA 2 mg/kg", "result": "47.16 ± 15.88", "unit": "mg/g"}, {"measurement": "Spleen weight normalized", "setting": "[1]; WFA 2 mg/kg", "result": "2.20 ± 1.74", "unit": "mg/g"}, {"measurement": "BW Week 2", "setting": "[1]; [4]", "result": "21.37 ± 1.32", "unit": "g"}, {"measurement": "BW Week 3", "setting": "[1]; [4]", "result": "23.57 ± 1.23", "unit": "g"}, {"measurement": "BW Week 1", "setting": "[1]; WFA 6 mg/kg group", "result": "20.70 ± 1.35", "unit": "g"}, {"measurement": "Initial BW", "setting": "[1]; WFA 6 mg/kg group", "result": "19.60 ± 0.76", "unit": "g"}, {"measurement": "Kidney weight normalized", "setting": "[1]; WFA 6 mg/kg", "result": "5.45 ± 0.49", "unit": "mg/g"}, {"measurement": "Liver weight normalized", "setting": "[1]; WFA 6 mg/kg", "result": "41.18 ± 3.60", "unit": "mg/g"}, {"measurement": "Spleen weight normalized", "setting": "[1]; WFA 6 mg/kg", "result": "2.78 ± 1.45", "unit": "mg/g"}, {"measurement": "cell cycle arrest and apoptosis", "setting": "CAOV3", "result": "induces cell cycle arrest and the induction of apoptosis"}, {"measurement": "relative transcript levels of TNFα, IL-6, MIP-2, IFNγ in the heart", "setting": "[2]; tumor-bearing WFA-treated groups", "result": "significantly reduced in the WFA-treated groups"}, {"measurement": "transcript levels of IFNγ in the heart", "setting": "[2]; tumor-bearing WFA-treated groups, normalized to tumor-bearing vehicle", "result": "significantly reduced in the WFA-treated groups"}, {"measurement": "relative transcript level of AT2R in the heart", "setting": "[2]; tumor-bearing, WFA 2 mg/kg", "result": "3.5±1.8", "unit": "fold"}, {"measurement": "relative transcript level of AT2R in the heart", "setting": "[2]; tumor-bearing, WFA 4 mg/kg", "result": "5.2±3.2", "unit": "fold"}, {"measurement": "reduction in relative transcript levels of Troponin-I (Tn-I) in heart", "setting": "[2]; tumor-bearing, both doses, vs tumor-bearing vehicle", "result": "significantly blunted"}, {"measurement": "phospho-p65 co-localized with DAPI (nuclear translocation)", "setting": "phospho-p65 (NF-κB)", "result": "impairment in the translocation of p65 to the nucleus"}, {"measurement": "phospho-p65 staining in tumor cells (IHC)", "setting": "phospho-p65 (NF-κB); vs vehicle treated group", "result": "severely diminished"}, {"measurement": "protein levels of phospho- and total p65 in tumor (immunoblot)", "setting": "phospho-p65 (NF-κB); vs vehicle treated group", "result": "robust decrease in the protein levels of phospho- and total p65"}, {"measurement": "Pax7+ cells normalized by number of Laminin+ myofibers", "setting": "satellite cells; tumor-bearing, WFA 2 mg/kg", "result": "0.26±0.01"}, {"measurement": "proportion of differentiating satellite cells (Pax7+/MyoD+)", "setting": "satellite cells; tumor-bearing, WFA 2 mg/kg", "result": "48.85±1.63", "unit": "%"}, {"measurement": "proportion of proliferating satellite cells (Pax7+/MyoD−)", "setting": "satellite cells; tumor-bearing, WFA 2 mg/kg", "result": "51.15±1.63", "unit": "%"}, {"measurement": "Pax7+ cells normalized by number of Laminin+ myofibers", "setting": "satellite cells; tumor-bearing, WFA 4 mg/kg", "result": "0.31±0.01"}, {"measurement": "proportion of differentiating satellite cells (Pax7+/MyoD+)", "setting": "satellite cells; tumor-bearing, WFA 4 mg/kg", "result": "52.79±1.99", "unit": "%"}, {"measurement": "proportion of proliferating satellite cells (Pax7+/MyoD−)", "setting": "satellite cells; tumor-bearing, WFA 4 mg/kg", "result": "47.21±1.99", "unit": "%"}, {"measurement": "Pax7+ cells normalized by number of Laminin+ myofibers", "setting": "satellite cells; tumor-free, WFA 2 mg/kg", "result": "0.28±0.02"}, {"measurement": "proportion of differentiating satellite cells (Pax7+/MyoD+)", "setting": "satellite cells; tumor-free, WFA 2 mg/kg", "result": "60.73±2.28", "unit": "%"}, {"measurement": "proportion of proliferating satellite cells (Pax7+/MyoD−)", "setting": "satellite cells; tumor-free, WFA 2 mg/kg", "result": "39.27±2.28", "unit": "%"}, {"measurement": "Pax7+ cells normalized by number of Laminin+ myofibers", "setting": "satellite cells; tumor-free, WFA 4 mg/kg", "result": "0.42±0.01"}, {"measurement": "proportion of differentiating satellite cells (Pax7+/MyoD+)", "setting": "satellite cells; tumor-free, WFA 4 mg/kg", "result": "61.37±1.49", "unit": "%"}, {"measurement": "proportion of proliferating satellite cells (Pax7+/MyoD−)", "setting": "satellite cells; tumor-free, WFA 4 mg/kg", "result": "38.63±1.49", "unit": "%"}]}
